Molecules are shown by their SMILES.

The target in assay [1] is T1, dUTPase (Deoxyuridine triphosphate nucleotidohydrolase) (Homo sapiens, UniProt P33316).
T1 construct: gene DUT
T1 sequence (P33316 70-252): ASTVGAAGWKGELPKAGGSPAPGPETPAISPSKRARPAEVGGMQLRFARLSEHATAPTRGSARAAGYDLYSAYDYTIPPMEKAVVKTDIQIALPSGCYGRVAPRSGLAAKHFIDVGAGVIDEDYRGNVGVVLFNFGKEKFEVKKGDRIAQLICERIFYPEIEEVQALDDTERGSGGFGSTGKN
As to the kind of experiment: EnzChek pyrophosphate coupled assay, recombinant human dUTPase, product inhibition. It is filed as biochemical.

Assay [2] deals with T2, thymidylate synthase (TS) (Homo sapiens, UniProt P04818).
T2 construct: gene TYMS
The assay can be described thus: western blot shift of TS ([…] to […] kDa, ternary complex) in HCT116 and SW480 cells treated with NUC-3373 or 5-FU. It is filed as cell-based.

T2 sequence (P04818 2-313): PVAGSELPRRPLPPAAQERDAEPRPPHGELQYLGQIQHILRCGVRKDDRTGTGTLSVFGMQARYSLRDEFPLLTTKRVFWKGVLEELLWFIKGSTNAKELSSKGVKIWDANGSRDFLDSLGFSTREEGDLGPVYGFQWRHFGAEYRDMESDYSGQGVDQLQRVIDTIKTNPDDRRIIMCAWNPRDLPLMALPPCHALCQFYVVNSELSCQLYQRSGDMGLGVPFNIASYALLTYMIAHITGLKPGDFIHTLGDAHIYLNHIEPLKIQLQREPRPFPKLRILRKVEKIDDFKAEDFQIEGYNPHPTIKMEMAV

Consider `O=c1[nH]c(=O)n([C@H]2C[C@H](O)[C@@H](COP(=O)(O)O)O2)cc1F` [FdUMP], for which the Ki in assay [1] is 0.62 ± 0.05 µM. Moreover, in assay [2], the “western blot shift of TS (36 to 38 kDa, ternary complex) in HCT116 and SW480 cel” value is “The binding of FdUMP to TS, causing inhibition of the enzyme, is determined by the presence of an upper band”.
On to `O=c1ccn([C@H]2C[C@H](O)[C@@H](COP(=O)(O)O)O2)c(=O)[nH]1` [dUMP], for which the inhibition constant (Ki) in assay [1] amounted to 5.8 ± 1.4 µM.

Source of the values: publication PMC10156769, “The novel anti-cancer fluoropyrimidine NUC-3373 is a potent inhibitor of thymidylate synthase and an effective DNA-damaging agent” (Cancer Chemotherapy and Pharmacology, 2023).
